Results on one substance are retold here after patent US11447534B2, “Peptide complex with immunodulatory and anti-inflammatory function” (NATIONAL INSTITUTE OF IMMUNOLOGY, priority 2018, dated 2022).

The subject of experiment [1] is carrageenan induced paw edema. The experiment in a line: Carrageenan induced paw inflammation in mice. In kind it is in vivo, mouse. On the procedure:
The effect of A-O complex was tested under in vivo conditions. Carrageenan, an inflammation inducing agent was injected into the hind foot pad of mouse to induce acute inflammation. The edema attains peak at around 3 hours post carrageenan challenge. This is a convenient model to assess the anti-inflammatory potency of test drugs to reduce or prevent the development of swelling. The protocol followed herein is as per Morris (2003) [Morris C J, 2003, Carrageenan induced paw edema in rat and mouse. In: Winyard P. G., Willoughby D. A. (eds) Inflammation Protocols. Methods in Molecular Biology, Vol 225. Humana Press. Pp 115-121].
Preparation of carrageenan: To prepare 0.5% of carrageenan solution, 50 mg of lamda-carrageenan ([…], Sigma Chemical Co., St. Louis, Mo., USA) was slowly added onto a small beaker containing 10 ml of normal saline. The powder was allowed to swell for some time and then slightly heated (not boiled) to dissolve the carrageenan. The solution was stirred during the heating. Once dissolved, the solution was cooled and aliquoted and stored at 4 degree Celsius.
Method: For experiment, the mice were acclimatized in cages under standard light and temperature settings with access to food and water ad libitum. Mice were acclimatized for 1 week in respective cages to minimize stress. At the day of experiment, mice were placed in a temporary animal restraint and 50 microlitre of carrageenan solution was administered by intraplantar injection to the right hind paw of each mouse. The left paw served as control and was administered 50 microlitre of normal saline.
To determine the efficacy of A-O complex different concentrations of complex viz. 5, 20 and 50 microgram per 100 g body weight of mice were administered intraperitoneally 1 hour before carrageenan challenge. Ibuprofen (100 mg/kg, Sigma Chemical Co., St. Louis, Mo., USA) served as positive control for the experiment. Paw size was measured by wrapping a piece of cotton thread round the paw of each […] and recording the length of the thread, the paw circumference, by use of a metric ruler. Paws were measured immediately before and at specified time points after carrageenan injection. Inhibitory activity was calculated at 1-5 h after carrageenan injection with the following formula: % Inhibition=[(Ct−C0)control−(Ct−C0)treated]/(Ct−C0)control×100, where Ct is paw size after carrageenan injection and C0 is paw size before carrageenan injection.

Experiment [2] relates to carrageenan challenged mice. The experiment in a line: Carrageenan induced nitrite production in serum (Griess reaction). The note with it: 50 microgram of A-O complex, 3rd hour post carrageenan challenge. Type of experiment: in vivo, mouse. On the procedure: Measurement of nitric oxide in serum: Nitric oxide concentration in serum of carrageenan challenged mice with or without treatment was determined by the Griess reaction as an indicator of nitric oxide production as previously reported by Prado (2002) [Prado W A, Schiavon V F, Cunha F Q. Dual effect of local application of nitric oxide donors in a model of incision pain in rats. Eur J Pharmacol. 2002; 441:57-65]. Briefly, 100 microlitre of sera and 100 microlitre of Griess reagent (mix of 2% sulphanilamide in 5% phosphoric acid and 0.2% N(1-naphthyl) ethylenediamine hydrochloride) were mixed in 96-well ELISA plate and Absorbance was read at 550 nm. The concentration of nitrite was determined using a standard curve of sodium nitrite.

For the substance “A-O complex: peptide complex of 100 μM Abeta1-42 (SEQ ID NO: 1) and 3 ng Glu-OC (SEQ ID NO: 2), incubated at 37° C. for 4 hours”, the “reduction in paw edema” value in experiment [1] (5 microgram per 100 g body weight i.p. 1 hour before carrageenan, first value (1 hour)) was found to be 25%; in experiment [1] (5 microgram per 100 g body weight i.p., second value (3rd hour)) it was 48%; in experiment [1] (5 microgram per 100 g body weight i.p., third value (5th hour)), 58%; in experiment [1] (20 microgram per 100 g body weight i.p., first value (1 hour)) it was 30%; in experiment [1] (20 microgram per 100 g body weight i.p., second value (3rd hour)) it was 60%; in experiment [1] (20 microgram per 100 g body weight i.p., third value (5th hour)), 65%. Moreover, the “reduction in paw edema” value in experiment [1] (50 microgram per 100 g body weight i.p., first value (1 hour)) is on record as 30%; in experiment [1] (50 microgram per 100 g body weight i.p., second value (3rd hour)) it was 57%; in experiment [1] (50 microgram per 100 g body weight i.p., third value (5th hour)) it was 65%. In experiment [2], the serum nitrite level entry is listed as “maximal efficiency to reduce serum nitrite level”.
